Source: patent publication US20180092393A1, “IRON NICOTINATE COMPOSITION” (NESTEC S.A., priority 2015, published 2018)

Settings: colour difference vs product with no iron salts; approximately 2.1 mg iron per 100 g; flash pasteurized at 3.05° C. for 2 minutes; 47.3% banana puree
Method: Colour measurements were performed in 1×1 cm polystyrene cuvettes using an X-Rite ColorEye 7000A colorimeter. The colorimeter was set up with a D65 light source, 3.0 degree observer angle and with specular component included. The colour difference between the product with no iron salts and the iron fortified product was measured for each iron salt and expressed as ΔEab* using the CIELAB colour scale.

For `O=S(=O)([O-])[O-].[Fe+2]` [Ferrous sulphate], the “ΔEab*” value was 3.26.
